The values that follow come from US20250236902A1 (priority 2022, published 2025).

One experiment relates to H3N2 NA. The class given is biochemical, influenza H3N2.
The subject of experiment [1] is 3NACP (Clostridium perfringens NA). It counts as binding. The conditions noted are these: 0.3 mU/mL 3NACP.
For experiment [2] the test system is unchanged. The class given is biochemical. To be noted: 3 mU/mL 3NACP; 1 μM inhibitor vs without.

The structures appear in SMILES notation. Read-outs that look alike come from different tables or passages of the source.

As to `CC(=O)N[C@H]1[C@H]([C@H](O)[C@H](O)CO)OC(C(=O)O)=C[C@@H]1N=C(N)N` [Zanamivir], in the experiment with H3N2 NA, the “inhibition effect on enzymatic response of AuE-H3 to H3N2 NA (normalized RCT)” value (shortened to “inhibition effect … (normalized RCT)”) is “strongest effect”.

In the case of `CCOC(=O)C1=C[C@@H](OC(CC)CC)[C@H](NC(C)=O)[C@@H](N)C1` [Oseltamivir], the “adsorption response of GCE-H3 to 3NACP (Normalized RCT) with inhibitor” value in experiment [1] (0.1 μM inhibitor, vs 0 μM) is “lower adsorption response”; in experiment [1] (1 μM inhibitor), “further decrease in response”. Also, the “inhibition effect … (normalized RCT)” value with H3N2 NA was “weak inhibition effect”. In addition, the “impedimetric response of AuE-H3 to 3NACP (1/Normalized RCT) with inhibitor” value in experiment [2] is reported as “decrease in response”.

Consider `CCC(CC)[C@H](NC(C)=O)[C@@H]1[C@H](O)[C@@H](C(=O)O)C[C@H]1N=C(N)N` [Peramivir], for which the “inhibition effect … (normalized RCT)” value with H3N2 NA was “moderate inhibition effect”.
